Inhibition and Ki data for 12 compounds are collected here from ChEMBL document CHEMBL1139566, “Discovery of AICAR Tfase inhibitors that disrupt requisite enzyme dimerization” (Bioorg Med Chem Lett, 2005).

The target in test [1] is T1, Bifunctional purine biosynthesis protein ATIC (Homo sapiens, UniProt P31939). The experiment in a line: Average inhibition of AICAR formyltransferase at 25 uM and 50 uM concentration relative to cappsin 2; Inactive.
Target sequence in this assay (P31939 whole entry, looked up): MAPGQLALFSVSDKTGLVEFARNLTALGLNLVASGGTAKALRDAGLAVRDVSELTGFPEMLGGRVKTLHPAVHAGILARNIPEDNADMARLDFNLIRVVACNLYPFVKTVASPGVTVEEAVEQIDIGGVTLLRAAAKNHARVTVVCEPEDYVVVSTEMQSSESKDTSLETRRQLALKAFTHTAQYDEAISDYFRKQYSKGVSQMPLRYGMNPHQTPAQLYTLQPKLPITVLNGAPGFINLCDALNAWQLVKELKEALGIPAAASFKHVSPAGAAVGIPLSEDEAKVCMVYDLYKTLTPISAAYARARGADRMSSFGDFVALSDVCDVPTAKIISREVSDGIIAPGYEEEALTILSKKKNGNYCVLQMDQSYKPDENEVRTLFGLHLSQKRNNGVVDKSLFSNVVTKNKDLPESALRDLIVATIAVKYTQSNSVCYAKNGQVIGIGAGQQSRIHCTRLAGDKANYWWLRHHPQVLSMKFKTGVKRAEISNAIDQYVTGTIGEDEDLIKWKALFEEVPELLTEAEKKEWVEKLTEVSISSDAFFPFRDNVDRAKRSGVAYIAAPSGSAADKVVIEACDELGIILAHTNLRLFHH
In test [2] the target is T1, Bifunctional purine biosynthesis protein ATIC. The experiment in a line: Inhibition constant against AICAR formyltransferase.
Target sequence in this assay (P31939 whole entry): as the sequence (P31939 whole entry, looked up) above

One may read the Ki as the equilibrium dissociation constant of an inhibitor or competing ligand from its target. Low values mean tighter binding, high ones weaker binding.

The structures appear in SMILES notation. The source made the active and inactive calls. The rule behind the calls is not given here. Peptide text beside a SMILES is read from it. * marks the point of attachment. NHPhenethyl = c1ccc(CCN*)cc1; Bz = O=C(c1ccccc1)*

Regarding `CCCNC(=O)CNC(=O)CNC(=O)c1cccc(I)c1`, the inhibition entry in test [1] was “inactive”. On the same count and under the same terms, with `O=C(CNC(=O)CNC(=O)c1ccccc1I)NCCc1ccccc1` the entry was “inactive”; with `COc1cccc(C(=O)NCC(=O)NCC(=O)NCCc2ccccc2)c1`, “inactive”. In test [2], `O=C(CNC(=O)CNC(=O)c1cccc(I)c1)NCCc1ccccc1` showed a Ki of 8 µM. `O=C(CNC(=O)CNC(=O)c1cccc([N+](=O)[O-])c1)NCCc1ccccc1`: in test [1], the inhibition entry is “inactive”.

`CNC(=O)CNC(=O)CNC(=O)c1cccc(I)c1`: in test [1], the inhibition result is “inactive”. Same read-out and setting: with `O=C(CNC(=O)CNC(=O)c1ccccc1)NCCc1ccccc1` (Bz-Gly-Gly-NHPhenethyl) the entry was “inactive”; with `Cc1cccc(C(=O)NCC(=O)NCC(=O)NCCc2ccccc2)c1`, “inactive”; with `COC(=O)CN(CC(=O)NCCc1ccccc1)C(=O)CNC(=O)c1cccc(I)c1`, “inactive”. For `O=C(CNC(=O)c1cccc(I)c1)NCC(=O)OCCc1ccccc1`, the inhibition entry in test [1] was “inactive”.

Consider `COc1ccc(CNC(=O)CN(CC(=O)NCCc2ccccc2)C(=O)CNC(=O)c2cccc(I)c2)cc1`, for which affinity in test [2] was put at a Ki of 3.1 µM.

`CN(CC(=O)NCCc1ccccc1)C(=O)CNC(=O)c1cccc(I)c1`: the inhibition entry in test [1] is “inactive”.
